Laboratory results published in patent publication US6358885B1, “Substituted phenylheterocyclic herbicides” (Mississippi State University, priority 1992, dated 2002).

Experiments:
Experiment in all cases: Test F preemergence/postemergence greenhouse plant response rating 0 to 100
Details in all cases: 0 to 100 scale
winter barley = type: in vivo, Hordeum vulgare cv. ‘Igri’
From the text: (§1) Compounds evaluated in this test were formulated in a non-phytoxic solvent and applied to the soil surface before plant seedlings emerged (preemergence application) and to plants that were in the one-to-four leaf stage (postemergence application). A sandy loam soil was used for the preemergence test while a mixture of sandy loam soil and greenhouse potting mix in a 60:40 ratio was used for the postemergence test. Test compounds were applied within approximately one day after planting seeds for the preemergence test. Plantings of these crops and weed species were adjusted to produce plants of appropriate size for the postemergence test. All plant species were grown using normal greenhouse practices. Crop and weed species include winter barley (Hordeum vulgare cv. ‘Igri’), blackgrass (Alopecurus myosuroides), chickweed (Stellaria media), downy brome (Bromus tectorum), field violet (Viola arvensis), galium (Galium aparine), green foxtail (Setaria viridis), kochia (Kochia scoparia), lambsquarters (Chenopodium album), speedwell (Veronica persica), rape (Brassica napus), ryegrass (Lolium multiflorum), sugar beet (Beta vulgaris cv. ‘USl’), sunflower (Helianthus annuus cv. ‘Russian Giant’), spring wheat (Triticum aestivum cv. ‘ERA’), winter wheat (Triticum aestivum cv. ‘Talent’), wild buckwheat (Polygonum convolvulus), wild mustard (Sinapis arvensis), wild oat (Avena fatua), and wild radish (Raphanus raphanistrum). Blackgrass, galium and wild oat were treated at two growth stages. […] Treated plants and untreated controls were maintained in a greenhouse for approximately 21 to 28 days, after which all treated plants were compared to untreated controls and visually evaluated. […] A dash response (-) means no test result.

chickweed = type: in vivo, Stellaria media
From the text: as §1

field violet = type: in vivo, Viola arvensis
From the text: as §1

kochia = type: in vivo, Kochia scoparia
From the text: as §1

sugar beet = type: in vivo, Beta vulgaris cv. ‘USl’
From the text: as §1

wild mustard = type: in vivo, Sinapis arvensis
From the text: as §1

wild oat = type: in vivo, Avena fatua
From the text: as §1

C#CCOc1cc(-c2nn3c(c2Br)CCCC3)c(F)cc1Cl [Compound 26]
100: Chickweed plant response rating (chickweed; POSTEMERGENCE, Rate 16 g/ha) | Chickweed plant response rating (chickweed; POSTEMERGENCE, Rate 64 g/ha) | Chickweed plant response rating (chickweed; POSTEMERGENCE, Rate 125 g/ha) | Chickweed plant response rating (chickweed; POSTEMERGENCE, Rate 250 g/ha) | Chickweed plant response rating (chickweed; PREEMERGENCE, Rate 64 g/ha) | Chickweed plant response rating (chickweed; PREEMERGENCE, Rate 125 g/ha) | Chickweed plant response rating (chickweed; PREEMERGENCE, Rate 250 g/ha) | Field violet plant response rating (field violet; POSTEMERGENCE, Rate 4 g/ha) | Field violet plant response rating (field violet; POSTEMERGENCE, Rate 8 g/ha) | Field violet plant response rating (field violet; POSTEMERGENCE, Rate 16 g/ha) | Field violet plant response rating (field violet; POSTEMERGENCE, Rate 32 g/ha) | Field violet plant response rating (field violet; POSTEMERGENCE, Rate 64 g/ha) | Field violet plant response rating (field violet; POSTEMERGENCE, Rate 125 g/ha) | Field violet plant response rating (field violet; POSTEMERGENCE, Rate 250 g/ha) | Field violet plant response rating (field violet; PREEMERGENCE, Rate 32 g/ha) | Field violet plant response rating (field violet; PREEMERGENCE, Rate 64 g/ha) | Field violet plant response rating (field violet; PREEMERGENCE, Rate 125 g/ha) | Field violet plant response rating (field violet; PREEMERGENCE, Rate 250 g/ha) | Kochia plant response rating (kochia; POSTEMERGENCE, Rate 4 g/ha) | Kochia plant response rating (kochia; POSTEMERGENCE, Rate 8 g/ha) | Kochia plant response rating (kochia; POSTEMERGENCE, Rate 16 g/ha) | Kochia plant response rating (kochia; POSTEMERGENCE, Rate 32 g/ha) | Kochia plant response rating (kochia; POSTEMERGENCE, Rate 64 g/ha) | Kochia plant response rating (kochia; POSTEMERGENCE, Rate 125 g/ha) | Kochia plant response rating (kochia; POSTEMERGENCE, Rate 250 g/ha) | Kochia plant response rating (kochia; PREEMERGENCE, Rate 64 g/ha) | Kochia plant response rating (kochia; PREEMERGENCE, Rate 125 g/ha) | Sugar beet plant response rating (sugar beet; POSTEMERGENCE, Rate 4 g/ha) | Sugar beet plant response rating (sugar beet; POSTEMERGENCE, Rate 8 g/ha) | Sugar beet plant response rating (sugar beet; POSTEMERGENCE, Rate 16 g/ha) | Sugar beet plant response rating (sugar beet; POSTEMERGENCE, Rate 32 g/ha) | Sugar beet plant response rating (sugar beet; POSTEMERGENCE, Rate 64 g/ha) | Sugar beet plant response rating (sugar beet; POSTEMERGENCE, Rate 125 g/ha) | Sugar beet plant response rating (sugar beet; POSTEMERGENCE, Rate 250 g/ha) | Sugar beet plant response rating (sugar beet; PREEMERGENCE, Rate 64 g/ha) | Sugar beet plant response rating (sugar beet; PREEMERGENCE, Rate 125 g/ha) | Sugar beet plant response rating (sugar beet; PREEMERGENCE, Rate 250 g/ha) | Wild mustard plant response rating (wild mustard; POSTEMERGENCE, Rate 16 g/ha) | Wild mustard plant response rating (wild mustard; POSTEMERGENCE, Rate 32 g/ha) | Wild mustard plant response rating (wild mustard; POSTEMERGENCE, Rate 64 g/ha) | Wild mustard plant response rating (wild mustard; POSTEMERGENCE, Rate 125 g/ha) | Wild mustard plant response rating (wild mustard; POSTEMERGENCE, Rate 250 g/ha)
10: Wild oat (1) plant response rating (wild oat; PREEMERGENCE, Rate 64 g/ha, Wild oat (1))
0: Winter Barley plant response rating (winter barley; POSTEMERGENCE, Rate 4 g/ha) | Winter Barley plant response rating (winter barley; POSTEMERGENCE, Rate 8 g/ha) | Winter Barley plant response rating (winter barley; POSTEMERGENCE, Rate 16 g/ha) | Winter Barley plant response rating (winter barley; PREEMERGENCE, Rate 4 g/ha) | Winter Barley plant response rating (winter barley; PREEMERGENCE, Rate 8 g/ha) | Winter Barley plant response rating (winter barley; PREEMERGENCE, Rate 16 g/ha) | Winter Barley plant response rating (winter barley; PREEMERGENCE, Rate 32 g/ha) | Winter Barley plant response rating (winter barley; PREEMERGENCE, Rate 64 g/ha) | Chickweed plant response rating (chickweed; PREEMERGENCE, Rate 4 g/ha) | Chickweed plant response rating (chickweed; PREEMERGENCE, Rate 8 g/ha) | Field violet plant response rating (field violet; PREEMERGENCE, Rate 4 g/ha) | Field violet plant response rating (field violet; PREEMERGENCE, Rate 8 g/ha) | Kochia plant response rating (kochia; PREEMERGENCE, Rate 4 g/ha) | Kochia plant response rating (kochia; PREEMERGENCE, Rate 8 g/ha) | Sugar beet plant response rating (sugar beet; PREEMERGENCE, Rate 4 g/ha) | Wild mustard plant response rating (wild mustard; PREEMERGENCE, Rate 4 g/ha) | Wild mustard plant response rating (wild mustard; PREEMERGENCE, Rate 8 g/ha) | Wild oat (1) plant response rating (wild oat; POSTEMERGENCE, Rate 4 g/ha, stage (1) two to three leaves) | Wild oat (2) plant response rating (wild oat; POSTEMERGENCE, Rate 4 g/ha, stage (2) approximately four leaves or initial tillering) | Wild oat (1) plant response rating (wild oat; POSTEMERGENCE, Rate 8 g/ha, stage (1) two to three leaves) | Wild oat (2) plant response rating (wild oat; POSTEMERGENCE, Rate 8 g/ha, stage (2) approximately four leaves or initial tillering) | Wild oat (1) plant response rating (wild oat; POSTEMERGENCE, Rate 16 g/ha, stage (1) two to three leaves) | Wild oat (2) plant response rating (wild oat; POSTEMERGENCE, Rate 16 g/ha, stage (2) approximately four leaves or initial tillering) | Wild oat (1) plant response rating (wild oat; PREEMERGENCE, Rate 4 g/ha, Wild oat (1)) | Wild oat (2) plant response rating (wild oat; PREEMERGENCE, Rate 4 g/ha, Wild oat (2)) | Wild oat (1) plant response rating (wild oat; PREEMERGENCE, Rate 8 g/ha, Wild oat (1)) | Wild oat (2) plant response rating (wild oat; PREEMERGENCE, Rate 8 g/ha, Wild oat (2)) | Wild oat (1) plant response rating (wild oat; PREEMERGENCE, Rate 16 g/ha, Wild oat (1)) | Wild oat (2) plant response rating (wild oat; PREEMERGENCE, Rate 16 g/ha, Wild oat (2)) | Wild oat (1) plant response rating (wild oat; PREEMERGENCE, Rate 32 g/ha, Wild oat (1)) | Wild oat (2) plant response rating (wild oat; PREEMERGENCE, Rate 32 g/ha, Wild oat (2))
25: Wild oat (1) plant response rating (wild oat; POSTEMERGENCE, Rate 32 g/ha, stage (1) two to three leaves)
45: Chickweed plant response rating (chickweed; PREEMERGENCE, Rate 16 g/ha) | Wild oat (1) plant response rating (wild oat; POSTEMERGENCE, Rate 125 g/ha, stage (1) two to three leaves)
15: Winter Barley plant response rating (winter barley; PREEMERGENCE, Rate 125 g/ha) | Wild oat (2) plant response rating (wild oat; POSTEMERGENCE, Rate 32 g/ha, stage (2) approximately four leaves or initial tillering) | Wild oat (2) plant response rating (wild oat; POSTEMERGENCE, Rate 64 g/ha, stage (2) approximately four leaves or initial tillering)
40: Chickweed plant response rating (chickweed; POSTEMERGENCE, Rate 8 g/ha) | Wild mustard plant response rating (wild mustard; PREEMERGENCE, Rate 16 g/ha) | Wild oat (1) plant response rating (wild oat; POSTEMERGENCE, Rate 64 g/ha, stage (1) two to three leaves)
20: Winter Barley plant response rating (winter barley; POSTEMERGENCE, Rate 32 g/ha) | Winter Barley plant response rating (winter barley; PREEMERGENCE, Rate 250 g/ha) | Wild oat (2) plant response rating (wild oat; POSTEMERGENCE, Rate 125 g/ha, stage (2) approximately four leaves or initial tillering) | Wild oat (2) plant response rating (wild oat; PREEMERGENCE, Rate 64 g/ha, Wild oat (2)) | Wild oat (1) plant response rating (wild oat; PREEMERGENCE, Rate 125 g/ha, Wild oat (1))
80: Kochia plant response rating (kochia; PREEMERGENCE, Rate 16 g/ha) | Kochia plant response rating (kochia; PREEMERGENCE, Rate 32 g/ha) | Wild mustard plant response rating (wild mustard; PREEMERGENCE, Rate 64 g/ha)
70: Field violet plant response rating (field violet; PREEMERGENCE, Rate 16 g/ha) | Sugar beet plant response rating (sugar beet; PREEMERGENCE, Rate 32 g/ha) | Wild mustard plant response rating (wild mustard; POSTEMERGENCE, Rate 4 g/ha) | Wild mustard plant response rating (wild mustard; POSTEMERGENCE, Rate 8 g/ha) | Wild mustard plant response rating (wild mustard; PREEMERGENCE, Rate 125 g/ha)
50: Chickweed plant response rating (chickweed; PREEMERGENCE, Rate 32 g/ha) | Sugar beet plant response rating (sugar beet; PREEMERGENCE, Rate 8 g/ha) | Wild mustard plant response rating (wild mustard; PREEMERGENCE, Rate 32 g/ha) | Wild oat (1) plant response rating (wild oat; POSTEMERGENCE, Rate 250 g/ha, stage (1) two to three leaves) | Wild oat (2) plant response rating (wild oat; PREEMERGENCE, Rate 250 g/ha, Wild oat (2))
90: Chickweed plant response rating (chickweed; POSTEMERGENCE, Rate 32 g/ha)
60: Sugar beet plant response rating (sugar beet; PREEMERGENCE, Rate 16 g/ha)
30: Winter Barley plant response rating (winter barley; POSTEMERGENCE, Rate 64 g/ha) | Winter Barley plant response rating (winter barley; POSTEMERGENCE, Rate 125 g/ha) | Winter Barley plant response rating (winter barley; POSTEMERGENCE, Rate 250 g/ha) | Chickweed plant response rating (chickweed; POSTEMERGENCE, Rate 4 g/ha) | Wild oat (2) plant response rating (wild oat; POSTEMERGENCE, Rate 250 g/ha, stage (2) approximately four leaves or initial tillering) | Wild oat (2) plant response rating (wild oat; PREEMERGENCE, Rate 125 g/ha, Wild oat (2)) | Wild oat (1) plant response rating (wild oat; PREEMERGENCE, Rate 250 g/ha, Wild oat (1))
